One experiment relates to tumor promotion. Conditions: prior art, in words, cited from earlier work.
In another experiment the target is T1, ras farnesyl transferase (Bos taurus, UniProt P29702+P49355).
T1 construct: ras farnesyl transferase obtained from bovine brain; from tissue; host or cells: bovine brain
The experiment can be described thus: inhibition of the farnesylation of ras-p21 by ras farnesyl transferase (3H-farnesylpyrophosphate incorporation). The class given is biochemical, bovine. Here is the method:
This inhibitory activity is assayed using partially purified ras farnesyl transferase obtained from bovine brain by DEA gel filtration (J. Biol. Chem., 260, 15575, 1991) purified to display a single band in gel electrophoresis. […] This mixture is incubated at 37° C. for 20 minutes. The solutes are then precipitated with trichloroacetic acid (TCA) and the precipitate is filtered on a glass filter. The amount of farnesyl incorporated into the ras-p21 is then determined by liquid scintillation.

Read-outs that look alike come from different tables or passages of the source.

Take `CCCCC[C@H](O)CC(=O)CCc1ccc(O)c(OC)c1` [Gingerol, (S)-5-Hydroxy-1-(4-hydroxy-3-methoxyphenyl)-3-decanone]: in the experiment on tumor promotion, the anti-tumor promoter activity entry is “reported to be an inhibitor of tumor promotion”.

With `C=C(C)C1CC=C(C)CC1` (stereo not shown) [Limonene, 1-methyl-4-(methylethenyl) cylcohexene], the anti-tumor promoter activity result with tumor promotion is listed as “has not been shown to have substantial anti-tumor promoter activity”.

For `CC1=CC=C(C(C)C)C(O)CC(C)=CCCC(C)=CCC1` (stereo not shown) [Sarcophytol A], the anti-tumor promoter activity result in the experiment on tumor promotion was “have been shown to have anti-tumor promoter activity”; in the experiment on tumor promotion (listed as sarcophytol A) it was “displays antitumor promoting properties”. At ras farnesyl transferase (37° C., 20 minutes, pH 7.5, 0.67 μM 3H-Farnesylpyrophosphate, 4 μg ras-p21), this compound showed an IC50 above 1000 µM. In addition, on ras farnesyl transferase (conclusion from Example 7), the “inhibition of the farnesylation of ras-p21, in words” value is recorded as “does not appear to be an effective inhibitor”.

For `C/C1=C\C=C(\C(C)C)[C@@H](O)[C@H](O)/C(C)=C/CC/C(C)=C/CC1` [Sarcophytol B], the anti-tumor promoter activity result in the experiment on tumor promotion is listed as “have been shown to have anti-tumor promoter activity”.
